Measurements: patent US20040214721A1 (priority 2001, published 2004)

melting point [°C] | SMILES
166 to 168 | CCC#CCOc1ccc([C@@H]2CCCC[C@H]2NC(=O)[C@@H](NS(C)(=O)=O)C(C)C)cc1OC
158 to 160 | CCC#CCOc1ccc([C@@H]2CCCC[C@H]2NC(=O)[C@@H](NS(=O)(=O)N(C)C)C(C)C)cc1OC
68 to 70 | COc1ccc(-c2ccccc2NC(=O)[C@@H](NS(C)(=O)=O)C(C)C)cc1OC
149 to 151 | C#CCOc1ccc([C@@H]2CCCC[C@H]2NC(=O)[C@@H](NS(=O)(=O)CC)C(C)C)cc1OC
133 to 136 | CCC#CCOc1ccc([C@@H]2CCCC[C@H]2NC(=O)[C@@H](NS(=O)(=O)CC)C(C)C)cc1OC
158 to 160 | COc1ccc(-c2ccccc2NC(=O)CNS(C)(=O)=O)cc1OC
183 to 185 | C#CCOc1ccc([C@@H]2CCCC[C@H]2NC(=O)[C@@H](NS(C)(=O)=O)C(C)C)cc1OC
95 to 98 | CCOc1ccc(-c2ccccc2NC(=O)[C@@H](NS(C)(=O)=O)C(C)C)cc1OC
